Assay results as given in US20190216827A1, “Composite Formulation of Dutasteride and Tadalafil Comprising Glycerol Fatty Acid Ester Derivative or Propylene Glycol Fatty Acid Ester Derivative and Oral Capsule Formulation Comprising the Same” (Yuyu Pharma, Inc., priority 2016, published 2019).
Converted amounts (≈) assume the structure as drawn.

Columns and labels:
[1] = Solubility test of dutasteride and tadalafil in oils; assay type: physicochemical; details: for solubility in a general oil: castor oil or soybean oil; for Solubility / solubility at 24 h: room temperature, stirring for 24 hours; for solubility at 24 h: oil or lipid, thermodynamic from solid
Experimental: In order to determine the solubility of dutasteride and tadalafil in oils, the solubilities to soybean oil, castor oil, glycerol monooleate, glycerol caprylate/caprate, propylene glycol monocaprylate and propylene glycol monolaurate were measured. A magnetic bar was placed in a 10 ml, vial, and 3 ml, of oil was added thereto. Then, while the mixture was stirred at room temperature, 100 mg of the main component was added thereto and the mixture was stirred at 500 rpm or higher. After stirring for 24 hours, only a supernatant was taken by a centrifugal separator, and an amount of the main component dissolved in the oil phase was quantitated by using a liquid chromatograph.

[2] = as above; assay type: physicochemical; details: room temperature, stirring for 24 hours; for solubility at 24 h: oil or lipid, thermodynamic from solid
[3] = in glycerol caprylate/caprate, glycerol monooleate, propylene glycol monocaprylate and propylene glycol monolaurate
[4] = in glycerol fatty acid ester derivative or propylene glycol fatty acid ester derivative as oil component

## 17β-N-(2,5-bis (trifluoromethyl)) phenylcarbamoyl-4-aza-5α-androst-1-en-3-one [dutasteride]
[1]
  solubility in a general oil: low
[1]; [3]
  solubility of dutasteride: ≥ 2.5 mg/mL
[1]; [4]
  solubility of dutasteride: ≥ 1 mg/mL
[1]; solvent Castor oil
  Solubility: 1.50 mg/mL
[1]; solvent Glycerol caprylate/caprate
  Solubility: 14.34 mg/mL
[1]; solvent Glycerol monooleate
  Solubility: 4.58 mg/mL
[1]; solvent Propylene glycol dicaprate
  Solubility: 0.77 mg/mL
[1]; solvent Propylene glycol dicaprylate
  Solubility: 1.13 mg/mL
[1]; solvent Propylene glycol monocaprylate
  Solubility: 20.98 mg/mL
[1]; solvent Propylene glycol monolaurate
  Solubility: 9.34 mg/mL
[2]; solvent Glycerol tricaprylate
  Solubility: 0.84 mg/mL

## CN1CC(=O)N2[C@H](c3ccc4c(c3)OCO4)c3[nH]c4ccccc4c3C[C@@H]2C1=O [tadalafil, 6R-trans-6-(1,3-benzodioxol-5-yl)-2,3,6,7,12,12a-hexahydro-2-methyl-pyrazino [1′,2′:1,6] pyrido[3,4-b]indole-1,4-dione]
[1]
  solubility in a general oil: low
[1]; glycerol caprylate/caprate (oil), solvent Glycerol caprylate/caprate
  solubility at 24 h: 4.13 mg/mL (≈ 10600 µM)
[1]; glycerol monooleate (oil), solvent Glycerol monooleate
  solubility at 24 h: 1.11 mg/mL (≈ 2850 µM)
[1]; [3]
  solubility of tadalafil relative to that of dutasteride: ⅓
[1]; [4]
  solubility of tadalafil relative to the solubility of dutasteride: ½
[1]; solvent Castor oil
  solubility at 24 h: 1.03 mg/mL (≈ 2650 µM)
[1]; solvent Soybean oil
  solubility at 24 h: 0.24 mg/mL (≈ 616 µM)
[1]; propylene glycol dicaprate (oil), solvent Propylene glycol dicaprate
  solubility at 24 h: 0.27 mg/mL (≈ 693 µM)
[1]; propylene glycol monocaprylate (oil), solvent Propylene glycol monocaprylate
  solubility at 24 h: 4.09 mg/mL (≈ 10500 µM)
[1]; propylene glycol monolaurate (oil), solvent Propylene glycol monolaurate
  solubility at 24 h: 1.03 mg/mL (≈ 2650 µM)
[2]; glycerol tricaprylate (oil), solvent Glycerol tricaprylate
  solubility at 24 h: 0.4 mg/mL (≈ 1030 µM)
[2]; propylene glycol dicaprylate (oil), solvent Propylene glycol dicaprylate
  solubility at 24 h: 0.44 mg/mL (≈ 1130 µM)
